Experimental data published in PubChem BioAssay (NCI).
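In this assay, cells in 96-well plates receive the compound at five concentrations for 48 hours. Endpoints are linearly interpolated between the surrounding concentrations. TGI is the concentration that stops growth completely.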

Legend:
Assay in all cases: NCI anticancer screen, dose series, 48 h
[1] = tested on: EKVX NSCLC
[2] = tested on: HCT-116 colon
[3] = tested on: HOP-62 NSCLC
[4] = tested on: MDA-MB-435
[5] = tested on: OVCAR-4 ovarian
[6] = tested on: OVCAR-5 ovarian
[7] = tested on: OVCAR-8 ovarian
[8] = tested on: RPMI-8226 leukemia
[9] = tested on: SF-295 CNS
[10] = tested on: T-47D breast

Compound | TGI [1] [µM] | TGI [2] [µM] | TGI [3] [µM] | TGI [4] [µM] | TGI [5] [µM] | TGI [6] [µM] | TGI [7] [µM] | TGI [8] [µM] | TGI [9] [µM] | TGI [10] [µM]
COc1c2c(c3c(c1CCC(=O)O)OC(C)(C)C=C3)OC(C)(C)C=C2 | > 100 | > 100 | > 100 | > 100 | > 100 | > 100 | > 100 | > 100 | > 100 | > 100
CCCCOc1ccc(NC(N)=Nc2ccc(Cl)cc2)cc1 | 14.7 | 12.4 | 2.86 | 23.4 | 17.5 | 19.9 | 25 | > 49.5 | 6.34 | 18.9
